Test results taken from US8168651B2, “Protein kinase modulators” (Cylene Pharmaceuticals, Inc., priority 2008, dated 2012).

Tests used:
Test in all cases: Standardized radiometric kinase assays, percentage of activity at 0.5 μM;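 note: Read-out is ³³P-labelled substrate protein phosphorylated by each kinase, captured on filters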
[1] = molecular target: each individual kinase of the panel (Homo sapiens, UniProt Q08881)
[2] = molecular target: each individual kinase of the panel (Homo sapiens, UniProt Q15831)
[3] = molecular target: each individual kinase of the panel (Homo sapiens, UniProt Q9Y6E0)
[4] = molecular target: each individual kinase of the panel (Homo sapiens, UniProt P29322)
Sequence of each individual kinase of the panel (Homo sapiens, UniProt P29322) (P29322 28-1005 limits assumed): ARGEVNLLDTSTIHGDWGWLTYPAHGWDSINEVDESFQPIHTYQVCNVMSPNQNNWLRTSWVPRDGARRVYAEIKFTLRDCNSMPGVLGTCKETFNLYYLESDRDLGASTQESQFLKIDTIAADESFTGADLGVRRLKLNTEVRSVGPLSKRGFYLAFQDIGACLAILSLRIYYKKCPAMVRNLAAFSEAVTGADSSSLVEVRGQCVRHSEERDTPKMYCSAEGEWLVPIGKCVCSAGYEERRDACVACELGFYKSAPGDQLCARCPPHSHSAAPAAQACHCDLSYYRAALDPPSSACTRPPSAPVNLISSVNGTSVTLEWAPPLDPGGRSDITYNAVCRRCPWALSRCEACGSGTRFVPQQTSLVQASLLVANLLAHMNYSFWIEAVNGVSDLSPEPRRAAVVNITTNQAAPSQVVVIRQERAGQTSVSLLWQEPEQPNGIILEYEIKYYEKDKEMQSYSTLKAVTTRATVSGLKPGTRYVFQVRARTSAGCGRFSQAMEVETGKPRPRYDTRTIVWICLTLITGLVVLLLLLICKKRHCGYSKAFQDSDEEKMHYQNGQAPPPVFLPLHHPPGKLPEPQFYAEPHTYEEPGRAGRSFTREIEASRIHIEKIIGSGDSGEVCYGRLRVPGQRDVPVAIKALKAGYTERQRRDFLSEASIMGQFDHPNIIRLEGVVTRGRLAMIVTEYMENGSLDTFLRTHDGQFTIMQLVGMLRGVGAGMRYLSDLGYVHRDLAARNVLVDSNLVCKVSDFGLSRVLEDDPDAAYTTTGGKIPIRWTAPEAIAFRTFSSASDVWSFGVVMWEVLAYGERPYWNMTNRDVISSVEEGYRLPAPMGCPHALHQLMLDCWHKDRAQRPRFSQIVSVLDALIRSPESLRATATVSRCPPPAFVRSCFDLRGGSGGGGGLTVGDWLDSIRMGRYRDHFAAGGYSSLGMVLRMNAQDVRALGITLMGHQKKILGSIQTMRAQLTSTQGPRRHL

[5] = molecular target: each individual kinase of the panel (Homo sapiens, UniProt Q9P286)
[6] = molecular target: each individual kinase of the panel (Homo sapiens, UniProt P09769)
Sequence of each individual kinase of the panel (Homo sapiens, UniProt P09769) (P09769 2-529 limits assumed): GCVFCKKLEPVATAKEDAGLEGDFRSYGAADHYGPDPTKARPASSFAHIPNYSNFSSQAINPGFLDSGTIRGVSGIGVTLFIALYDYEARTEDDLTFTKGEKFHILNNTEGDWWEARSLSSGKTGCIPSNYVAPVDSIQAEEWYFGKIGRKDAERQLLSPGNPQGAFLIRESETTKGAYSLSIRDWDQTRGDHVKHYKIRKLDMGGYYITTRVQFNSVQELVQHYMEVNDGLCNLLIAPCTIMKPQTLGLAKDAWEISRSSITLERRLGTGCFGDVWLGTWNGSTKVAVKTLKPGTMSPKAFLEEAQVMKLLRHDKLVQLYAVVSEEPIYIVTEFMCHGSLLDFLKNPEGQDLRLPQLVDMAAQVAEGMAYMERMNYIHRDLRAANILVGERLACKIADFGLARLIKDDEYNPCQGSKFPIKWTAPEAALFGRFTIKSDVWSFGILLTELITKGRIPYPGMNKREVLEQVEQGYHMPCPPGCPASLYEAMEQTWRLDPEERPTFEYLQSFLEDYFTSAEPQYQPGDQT

[7] = molecular target: each individual kinase of the panel (Homo sapiens, UniProt Q06187)
Sequence of each individual kinase of the panel (Homo sapiens, UniProt Q06187) (Q06187 2-659 limits assumed): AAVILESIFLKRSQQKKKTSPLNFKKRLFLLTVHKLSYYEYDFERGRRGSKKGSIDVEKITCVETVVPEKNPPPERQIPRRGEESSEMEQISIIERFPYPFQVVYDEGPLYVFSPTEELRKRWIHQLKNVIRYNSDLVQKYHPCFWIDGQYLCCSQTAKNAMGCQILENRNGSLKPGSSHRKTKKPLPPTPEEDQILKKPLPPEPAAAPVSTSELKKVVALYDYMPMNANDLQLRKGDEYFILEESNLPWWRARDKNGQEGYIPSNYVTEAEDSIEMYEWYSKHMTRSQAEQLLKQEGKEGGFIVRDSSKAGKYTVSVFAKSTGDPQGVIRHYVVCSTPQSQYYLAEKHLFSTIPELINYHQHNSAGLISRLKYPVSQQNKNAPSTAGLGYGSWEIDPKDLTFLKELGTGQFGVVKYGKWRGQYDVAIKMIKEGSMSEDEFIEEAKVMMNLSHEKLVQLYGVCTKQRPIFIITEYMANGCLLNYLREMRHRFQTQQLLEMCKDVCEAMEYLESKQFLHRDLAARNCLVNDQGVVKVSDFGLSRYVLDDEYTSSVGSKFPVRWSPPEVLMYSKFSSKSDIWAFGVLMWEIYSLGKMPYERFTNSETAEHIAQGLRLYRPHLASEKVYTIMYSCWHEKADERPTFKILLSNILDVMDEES

[8] = molecular target: each individual kinase of the panel (Homo sapiens, UniProt Q8NG66)
[9] = molecular target: each individual kinase of the panel (Homo sapiens, UniProt P43405)
[10] = molecular target: each individual kinase of the panel (Homo sapiens, UniProt P49761)
[11] = molecular target: each individual kinase of the panel (Homo sapiens, UniProt Q9UPE1)
[12] = molecular target: each individual kinase of the panel (Homo sapiens, UniProt P29320)
Sequence of each individual kinase of the panel (Homo sapiens, UniProt P29320) (P29320 21-983 limits assumed): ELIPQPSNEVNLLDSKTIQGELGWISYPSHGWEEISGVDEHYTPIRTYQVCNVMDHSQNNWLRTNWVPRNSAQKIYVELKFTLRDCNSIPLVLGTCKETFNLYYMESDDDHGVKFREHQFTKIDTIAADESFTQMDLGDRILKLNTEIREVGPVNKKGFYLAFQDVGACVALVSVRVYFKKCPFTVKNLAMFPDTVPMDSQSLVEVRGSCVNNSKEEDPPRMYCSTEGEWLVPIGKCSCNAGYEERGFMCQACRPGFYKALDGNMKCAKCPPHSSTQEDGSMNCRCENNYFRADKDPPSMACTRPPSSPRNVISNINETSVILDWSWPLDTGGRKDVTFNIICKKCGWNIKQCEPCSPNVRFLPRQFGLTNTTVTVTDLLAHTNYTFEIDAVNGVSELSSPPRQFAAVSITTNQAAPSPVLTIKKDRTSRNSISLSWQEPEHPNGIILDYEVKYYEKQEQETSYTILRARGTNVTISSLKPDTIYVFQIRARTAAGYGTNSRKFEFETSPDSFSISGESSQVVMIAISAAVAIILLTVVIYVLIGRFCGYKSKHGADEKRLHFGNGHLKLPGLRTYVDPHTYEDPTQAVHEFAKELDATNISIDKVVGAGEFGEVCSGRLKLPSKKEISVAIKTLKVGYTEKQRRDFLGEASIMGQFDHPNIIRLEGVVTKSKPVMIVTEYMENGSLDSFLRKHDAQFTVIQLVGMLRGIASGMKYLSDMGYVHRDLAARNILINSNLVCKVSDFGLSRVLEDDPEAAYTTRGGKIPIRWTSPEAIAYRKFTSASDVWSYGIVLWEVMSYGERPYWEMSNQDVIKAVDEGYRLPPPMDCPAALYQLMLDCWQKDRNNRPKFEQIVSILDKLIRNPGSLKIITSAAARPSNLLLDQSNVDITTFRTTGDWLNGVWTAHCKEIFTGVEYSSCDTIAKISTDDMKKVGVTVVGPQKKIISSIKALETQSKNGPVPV

[13] = molecular target: each individual kinase of the panel (Homo sapiens, UniProt O96013)
[14] = molecular target: each individual kinase of the panel (Homo sapiens, UniProt Q8TF76)
[15] = molecular target: each individual kinase of the panel (Homo sapiens, UniProt P00519, T315I)
[16] = molecular target: each individual kinase of the panel (Homo sapiens, UniProt O94806)
[17] = molecular target: each individual kinase of the panel (Homo sapiens, UniProt Q8N4C8)
[18] = molecular target: each individual kinase of the panel (Homo sapiens, UniProt Q96RG2)
[19] = molecular target: each individual kinase of the panel (Homo sapiens, UniProt Q16539)
Sequence of each individual kinase of the panel (Homo sapiens, UniProt Q16539) (Q16539 2-360 limits assumed): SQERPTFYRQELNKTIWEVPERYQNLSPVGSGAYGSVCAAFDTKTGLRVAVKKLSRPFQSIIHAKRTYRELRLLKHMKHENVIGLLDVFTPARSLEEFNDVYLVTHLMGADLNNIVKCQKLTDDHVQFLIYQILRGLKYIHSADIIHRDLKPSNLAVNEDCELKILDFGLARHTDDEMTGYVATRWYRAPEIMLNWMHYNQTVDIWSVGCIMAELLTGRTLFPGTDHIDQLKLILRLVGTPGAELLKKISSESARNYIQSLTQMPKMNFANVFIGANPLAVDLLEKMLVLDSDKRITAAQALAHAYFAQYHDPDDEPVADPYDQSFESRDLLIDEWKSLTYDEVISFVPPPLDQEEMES

[20] = molecular target: each individual kinase of the panel (Homo sapiens, UniProt P78362)
[21] = molecular target: each individual kinase of the panel (Homo sapiens, UniProt P53778)
[22] = molecular target: each individual kinase of the panel (Homo sapiens, UniProt P54762)
[23] = molecular target: each individual kinase of the panel (Homo sapiens, UniProt Q12851)
[24] = molecular target: each individual kinase of the panel (Mus musculus, UniProt P63085)
Sequence of each individual kinase of the panel (Mus musculus, UniProt P63085) (P63085 2-358 limits assumed): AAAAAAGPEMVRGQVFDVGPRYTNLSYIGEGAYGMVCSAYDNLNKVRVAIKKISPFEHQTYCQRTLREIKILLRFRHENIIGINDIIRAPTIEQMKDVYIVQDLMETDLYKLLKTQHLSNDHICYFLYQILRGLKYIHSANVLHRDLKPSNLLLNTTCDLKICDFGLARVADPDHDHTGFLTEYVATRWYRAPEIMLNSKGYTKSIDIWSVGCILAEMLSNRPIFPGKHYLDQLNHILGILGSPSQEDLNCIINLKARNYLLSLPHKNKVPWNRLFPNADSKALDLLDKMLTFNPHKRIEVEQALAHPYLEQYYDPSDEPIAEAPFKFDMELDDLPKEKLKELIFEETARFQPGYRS

[25] = molecular target: each individual kinase of the panel (Homo sapiens, UniProt P21709)
Sequence of each individual kinase of the panel (Homo sapiens, UniProt P21709) (P21709 26-976 limits assumed): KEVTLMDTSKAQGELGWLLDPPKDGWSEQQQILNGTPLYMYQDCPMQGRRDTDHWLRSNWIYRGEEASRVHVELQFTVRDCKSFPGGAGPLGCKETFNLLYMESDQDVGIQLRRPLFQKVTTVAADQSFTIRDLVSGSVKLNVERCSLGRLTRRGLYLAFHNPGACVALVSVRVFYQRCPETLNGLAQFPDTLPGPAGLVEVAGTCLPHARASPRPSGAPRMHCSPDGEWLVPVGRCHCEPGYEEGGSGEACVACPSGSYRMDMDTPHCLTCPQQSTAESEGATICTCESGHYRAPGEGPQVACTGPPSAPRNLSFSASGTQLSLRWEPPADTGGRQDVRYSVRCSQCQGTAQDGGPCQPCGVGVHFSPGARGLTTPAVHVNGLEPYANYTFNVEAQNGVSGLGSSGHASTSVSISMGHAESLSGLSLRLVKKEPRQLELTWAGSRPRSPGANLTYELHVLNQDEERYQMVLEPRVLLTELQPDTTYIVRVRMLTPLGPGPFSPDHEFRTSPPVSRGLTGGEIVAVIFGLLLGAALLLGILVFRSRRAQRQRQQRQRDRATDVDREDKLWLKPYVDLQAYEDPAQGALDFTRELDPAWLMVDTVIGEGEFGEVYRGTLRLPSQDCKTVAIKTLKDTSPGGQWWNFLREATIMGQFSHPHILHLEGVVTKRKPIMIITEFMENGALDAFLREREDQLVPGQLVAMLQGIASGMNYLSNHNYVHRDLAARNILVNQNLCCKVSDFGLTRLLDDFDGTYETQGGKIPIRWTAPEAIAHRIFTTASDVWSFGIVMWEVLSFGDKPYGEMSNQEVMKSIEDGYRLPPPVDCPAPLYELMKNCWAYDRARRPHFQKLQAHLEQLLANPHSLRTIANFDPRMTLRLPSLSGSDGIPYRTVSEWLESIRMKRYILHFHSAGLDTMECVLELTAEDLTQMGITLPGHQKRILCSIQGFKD

[26] = molecular target: each individual kinase of the panel (Homo sapiens, UniProt P48730)
[27] = molecular target: each individual kinase of the panel (Homo sapiens, UniProt P43250)
[28] = molecular target: each individual kinase of the panel (Homo sapiens, UniProt Q00535)
[29] = molecular target: each individual kinase of the panel (Homo sapiens, UniProt Q00526)
[30] = molecular target: each individual kinase of the panel (Mus musculus, UniProt P47809)
[31] = molecular target: each individual kinase of the panel (Homo sapiens, UniProt P52333)

Q: With C#Cc1cccc(Nc2nc3cc(C(=O)O)ccc3c3cncnc23)c1 [drawing 1135] as the molecule, how does the “ITK;Itk(h) percentage of activity” value [1] read?
A: 0%

Q: What about the “LKB1 percentage of activity” value [2] of the same molecule?
A: −2%

Q: What about the “MST3 percentage of activity” value [3] of the same molecule?
A: 0%

Q: What about the “EPHA8 percentage of activity” value [4] of the same molecule?
A: −15%

Q: And the “PAK5 percentage of activity” value [5]?
A: −8%

Q: What about the “FGR percentage of activity” value [6] of the same molecule?
A: 39%

Q: What about the “BTK percentage of activity” value [7] of the same molecule?
A: −5%

Q: And the “NEK11 percentage of activity” value [8]?
A: −2%

Q: And the “SYK percentage of activity” value [9]?
A: −9%

Q: And the “CLK3 percentage of activity” value [10]?
A: 83%

Q: What about the “MSSK1 percentage of activity” value [11] of the same molecule?
A: −3%

Q: And the “EPHA3 percentage of activity” value [12]?
A: −6%

Q: And the “PAK4 percentage of activity” value [13]?
A: −12%

Q: And the “GSG2 percentage of activity” value [14]?
A: 4%

Q: And the “ABL1(T3151) percentage of activity” value [15]?
A: −7%

Q: And the “PRKCN percentage of activity” value [16]?
A: 2%

Q: What about the “MINK percentage of activity” value [17] of the same molecule?
A: −13%

Q: And the “PASK percentage of activity” value [18]?
A: 87%

Q: And the “p38-alpha percentage of activity” value [19]?
A: 1%

Q: What about the “SRPK2 percentage of activity” value [20] of the same molecule?
A: 36%

Q: What about the “p38-gamma percentage of activity” value [21] of the same molecule?
A: 12%

Q: And the “EPHB1 percentage of activity” value [22]?
A: 1%

Q: What about the “GCK percentage of activity” value [23] of the same molecule?
A: 1%

Q: What about the “MAPK2(m) percentage of activity” value [24] of the same molecule?
A: −6%

Q: What about the “EPHA1 percentage of activity” value [25] of the same molecule?
A: −6%

Q: What about the “CK1 delta percentage of activity” value [26] of the same molecule?
A: −4%

Q: And the “GRK6 percentage of activity” value [27]?
A: −2%

Q: What about the “CDK5/p25 percentage of activity” value [28] of the same molecule?
A: 4%

Q: And the “CDK5/p35 percentage of activity” value [28]?
A: −7%

Q: And the “CDK3/cyclinE percentage of activity” value [29]?
A: −19%

Q: What about the “MKK4(m) percentage of activity” value [30] of the same molecule?
A: −2%

Q: And the “JAK3 percentage of activity” value [31]?
A: 8%
